From ChEMBL document CHEMBL3872214, “Synthesis and evaluation of in vivo antioxidant, in vitro antibacterial, MRSA and antifungal activity of novel substituted isatin N-(2,3,4,6-tetra-O-acetyl-β-d-glucopyranosyl)thiosemicarbazones” (Eur J Med Chem, 2016)
≈ marks a conversion by molar mass, not a printed value.

Legend:
[1] = Antifungal activity against Saccharomyces cerevisiae SH20 after 72 hrs by agar dilution method; assay type: functional
Rattus norvegicus [2] = assay: (§1) Antioxidant activity in CCL4-intoxicated Wistar albino rat assessed as liver cytosolic catalase activity per mg protein at 100 mg/kg, ip administered for 7 consecutive days after DL-alpha-tocopherol acetate treatment followed by CCL4 dosing measured after 24 hrs by H2O2 based assay (reference value: 220.15 +/- 11.43 U); assay type: functional
[3] = Cytotoxicity against human MCF7 cells after 3 days by MTT assay; assay type: functional, cell-based; details: MCF7, 72 h
Rattus norvegicus [4] = assay: as §1, with “glutathione peroxidase” for “catalase”, “spectrophotometric analysis” for “assay”, “0.28” for “220.15”, “0.01” for “11.43”; assay type: functional
[5] = Cytotoxicity against mouse NIH/3T3 cells after 3 days by MTT assay; assay type: toxicity, NIH3T3
Staphylococcus aureus [6] = assay: Antibacterial activity against methicillin-resistant Staphylococcus aureus 198-2 after 18 to 20 hrs by two-fold microbroth dilution method; assay type: functional
Rattus norvegicus [7] = assay: as §1, with “superoxide dismutase” for “catalase”, “xanthine” for “H2O2”, “5.27” for “220.15”, “0.22” for “11.43”; assay type: functional
[8] = Cytotoxicity against human HepG2 cells after 3 days by MTT assay; assay type: functional, cell-based; details: HepG2, 72 h
Pseudomonas aeruginosa = assay: Antibacterial activity against Pseudomonas aeruginosa […] after 18 to 20 hrs by two-fold microbroth dilution method; assay type: functional
Staphylococcus aureus [9] = assay: Antibacterial activity against Staphylococcus aureus ATCC 11632 after 18 to 20 hrs by two-fold microbroth dilution method; assay type: functional
[10] = Cytotoxicity against mouse […] cells after 3 days by MTT assay; assay type: functional, cell-based; details: 72 h
Bacillus subtilis = assay: Antibacterial activity against Bacillus subtilis ATCC 11774 after 18 to 20 hrs by two-fold microbroth dilution method; assay type: functional
Klebsiella aerogenes = assay: Antibacterial activity against Enterobacter aerogenes ATCC 13048 after 18 to 20 hrs by two-fold microbroth dilution method; assay type: functional
Klebsiella pneumoniae = assay: Antibacterial activity against Klebsiella pneumoniae ATCC 4352 after 18 to 20 hrs by two-fold microbroth dilution method; assay type: functional
Staphylococcus aureus [11] = assay: Antibacterial activity against methicillin-resistant Staphylococcus aureus 198-1 after 18 to 20 hrs by two-fold microbroth dilution method; assay type: functional
Staphylococcus aureus [12] = assay: Antibacterial activity against methicillin-resistant Staphylococcus aureus 198-3 after 18 to 20 hrs by two-fold microbroth dilution method; assay type: functional
[13] = test system: Staphylococcus epidermidis; assay: Antibacterial activity against Staphylococcus epidermidis ATCC 12228 after 18 to 20 hrs by two-fold microbroth dilution method; assay type: functional
Escherichia coli = assay: Antibacterial activity against Escherichia coli ATCC 25922 after 18 to 20 hrs by two-fold microbroth dilution method; assay type: functional
Aspergillus niger = assay: Antifungal activity against Aspergillus niger 439 after 72 hrs by agar dilution method; assay type: functional; details: Aspergillus niger, 439, 72 h
[14] = Cytotoxicity against human SW480 cells after 3 days by MTT assay; assay type: functional, cell-based; details: SW480, 72 h
[15] = Cytotoxicity against human KB cells after 3 days by MTT assay; assay type: functional, cell-based; details: 72 h
Candida albicans = assay: Antifungal activity against Candida albicans ATCC 7754 after 72 hrs by agar dilution method; assay type: functional; details: ATCC 7754, 72 h
[16] = Cytotoxicity against human Lu1 cells after 3 days by MTT assay; assay type: functional, cell-based; details: Lu1, 72 h
[17] = Antifungal activity against Fusarium oxysporum M42 after 72 hrs by agar dilution method; assay type: functional

CC(=O)OC[C@H]1O[C@@H](NC(=S)N/N=C2/C(=O)Nc3c(Br)cc(Br)cc32)[C@H](OC(C)=O)[C@@H](OC(C)=O)[C@@H]1OC(C)=O
MIC [1]: 6.25 µM (≈ 4.43 µg/mL)
Activity (Rattus norvegicus [2]): 397.53 U
IC50 [3]: 2750 nM
Activity (Rattus norvegicus [4]): 0.31 U
IC50 at 3 days [5]: 1530 nM
MIC (Staphylococcus aureus [6]): 0.78 µM (≈ 0.553 µg/mL)
Activity (Rattus norvegicus [7]): 10.89 U
IC50 [8]: 8410 nM
MIC (Pseudomonas aeruginosa): 50 µM (≈ 35.4 µg/mL)
MIC (Staphylococcus aureus [9]): 1.56 µM (≈ 1.11 µg/mL)
IC50 [10]: 18400 nM
MIC (Bacillus subtilis): 1.56 µM (≈ 1.11 µg/mL)
MIC (Klebsiella aerogenes): 50 µM (≈ 35.4 µg/mL)
MIC (Klebsiella pneumoniae): 50 µM (≈ 35.4 µg/mL)
MIC (Staphylococcus aureus [11]): 0.78 µM (≈ 0.553 µg/mL)
MIC (Staphylococcus aureus [12]): 0.78 µM (≈ 0.553 µg/mL)
MIC [13]: 1.56 µM (≈ 1.11 µg/mL)
MIC (Escherichia coli): 50 µM (≈ 35.4 µg/mL)
MIC (Aspergillus niger): 3.12 µM (≈ 2.21 µg/mL)
IC50 [14]: 4750 nM
IC50 [15]: 12800 nM
MIC (Candida albicans): 6.25 µM (≈ 4.43 µg/mL)
IC50 [16]: 5530 nM
MIC [17]: 12.5 µM (≈ 8.85 µg/mL)

Cc1c2ccncc2c(C)c2c1[nH]c1ccccc12 [ELLIPTECINE]
IC50 [3]: 530 nM
IC50 at 3 days [5]: 320 nM
IC50 [8]: 1950 nM
IC50 [10]: 1270 nM
IC50 [14]: 750 nM
IC50 [15]: 520 nM
IC50 [16]: 1390 nM
